According to patent US20240358692A1, “TREATMENT OF SCLERODERMA” (Aisa Pharma, Inc., priority 2023, published 2024):

What was measured:
participants with SSc-RP [1] = assay: Average duration of weekly RP attacks (minutes), patient diary; assay type: in vivo, human
Text: The absolute change in average duration of weekly RP attacks from baseline to the end of each dosing period was and will be a secondary outcome variable. The sponsor-developed participant-informed diary was and will be used to record data. Average duration of weekly RP attacks is defined as the total duration of RP attacks divided by total number of RP attacks within the last 7 days of each dosing period. Total duration of RP attacks during the last 7 days of screening period divided by the total number of RP attacks will be used as baseline for the analysis of all periods. The variable will be calculated similar to frequency data as before.

participants with SSc-RP [2] = assay: Average pain score recorded during weekly RP attacks (11-point Likert scale); assay type: in vivo, human; conditions: for Average Pain Score Change From Baseline [Mean (SD)]: Table G
Text: The absolute change in average pain score (11-point Likert scale) of weekly RP attacks from baseline to the end of each Dosing Period will be a secondary outcome variable. The sponsor-developed participant-informed diary will be used to record data. The average pain score of weekly RP attacks is defined as the total pain scores divided by total number of RP attacks within the last 7 days of each dosing period. Average of the last 7 days of screening assessments will be used as baseline for the analysis of all periods. The variable will be calculated similar to frequency data as before.

[3] = Pooled Cilnidipine 20 mg and Cilnidipine 20 mg + Tadalafil 5 mg, Excluding Outliers, by Baseline RCS, second RCS subgroup of table (not named), ITT Population - Part A
[4] = Pooled Cilnidipine 20 mg and Cilnidipine 20 mg + Tadalafil 5 mg, by Baseline RCS, first subgroup of table, ITT Population - Part A
[5] = Pooled Cilnidipine 20 mg and Cilnidipine 20 mg + Tadalafil 5 mg, by Baseline RCS, second RCS subgroup of table (not named), ITT Population - Part A
[6] = Pooled Cilnidipine 20 mg and Cilnidipine 20 mg + Tadalafil 5 mg, by Baseline RCS, second subgroup of table, ITT Population - Part A
[7] = Pooled Cilnidipine 20 mg and Cilnidipine 20 mg + Tadalafil 5 mg, last 7 days of dosing period, ITT Part A
[8] = Pooled Cilnidipine, Excluding Outliers, ITT Population - Part A
[9] = Pooled Cilnidipine, Excluding Outliers, by Baseline RCS, first RCS subgroup of table (not named), ITT Population - Part A
[10] = Pooled Cilnidipine, ITT Population - Part A
[11] = Pooled Cilnidipine, ITT Population - Part A, last 7 days of dosing period
[12] = Pooled Cilnidipine, by Baseline RCS, first RCS subgroup of table (not named), ITT Population - Part A
[13] = Pooled Cilnidipine, by Baseline RCS, first subgroup of table, ITT Population - Part A
[14] = Pooled Cilnidipine, excluding outliers, 1st baseline RCS subgroup, ITT Part A

COCCOC(=O)C1=C(C)NC(C)=C(C(=O)OC/C=C/c2ccccc2)C1c1cccc([N+](=O)[O-])c1 (centres unmarked) [Cilnidipine]
Change from Baseline in average duration of weekly symptomatic RP attacks, Mean (participants with SSc-RP [1]; [3]): -27.00 min
Change from Baseline in average duration of weekly symptomatic RP attacks, Median (participants with SSc-RP [1]; [3]): -27.00 min
Percent Change from Baseline in average duration of weekly symptomatic RP attacks, Mean (participants with SSc-RP [1]; [3]): −30.00%
Percent Change from Baseline in average duration of weekly symptomatic RP attacks, Median (participants with SSc-RP [1]; [3]): −30.00%
Average Duration of Weekly RP Attacks (All Attacks), Change from Baseline, Mean (participants with SSc-RP [1]; [4]): 0.00 min
Average Duration of Weekly RP Attacks (All Attacks), Change from Baseline, Median (participants with SSc-RP [1]; [4]): 2.16 min
Average Duration of Weekly RP Attacks (All Attacks), Mean (participants with SSc-RP [1]; [4]): 15.91 min
Average Duration of Weekly RP Attacks (All Attacks), Median (participants with SSc-RP [1]; [4]): 14.27 min
Average Duration of Weekly RP Attacks (All Attacks), Percent Change from Baseline, Mean (participants with SSc-RP [1]; [4]): −10.70%
Average Duration of Weekly RP Attacks (All Attacks), Percent Change from Baseline, Median (participants with SSc-RP [1]; [4]): 17.86%
Change from Baseline in average duration of weekly symptomatic RP attacks, Mean (participants with SSc-RP [1]; [5]): -27.00 min
Change from Baseline in average duration of weekly symptomatic RP attacks, Median (participants with SSc-RP [1]; [5]): -27.00 min
Percent Change from Baseline in average duration of weekly symptomatic RP attacks, Mean (participants with SSc-RP [1]; [5]): −30.00%
Percent Change from Baseline in average duration of weekly symptomatic RP attacks, Median (participants with SSc-RP [1]; [5]): −30.00%
Average Duration of Weekly RP Attacks (All Attacks), Change from Baseline, Mean (participants with SSc-RP [1]; [6]): -19.09 min
Average Duration of Weekly RP Attacks (All Attacks), Change from Baseline, Median (participants with SSc-RP [1]; [6]): -19.09 min
Average Duration of Weekly RP Attacks (All Attacks), Mean (participants with SSc-RP [1]; [6]): 62.73 min
Average Duration of Weekly RP Attacks (All Attacks), Median (participants with SSc-RP [1]; [6]): 62.73 min
Average Duration of Weekly RP Attacks (All Attacks), Percent Change from Baseline, Mean (participants with SSc-RP [1]; [6]): −23.33%
Average Duration of Weekly RP Attacks (All Attacks), Percent Change from Baseline, Median (participants with SSc-RP [1]; [6]): −23.33%
Average Duration of weekly symptomatic RP attacks, Mean (participants with SSc-RP [1]; [7]): 27.98 min
Average Duration of weekly symptomatic RP attacks, Median (participants with SSc-RP [1]; [7]): 22.96 min
Duration (change) (participants with SSc-RP [1]; Pooled Cilnidipine (n = 7)): 20%
Average Duration of weekly symptomatic RP attacks, Mean (participants with SSc-RP [1]; [8]): 21.70 min
Average Duration of weekly symptomatic RP attacks, Median (participants with SSc-RP [1]; [8]): 30.45 min
Percent Change from Baseline in average duration of weekly symptomatic RP attacks, Median (participants with SSc-RP [1]; [8]): −34.60%
Average Duration of weekly symptomatic RP attacks, Mean (participants with SSc-RP [1]; [9]): 21.70 min
Average Duration of weekly symptomatic RP attacks, Median (participants with SSc-RP [1]; [9]): 30.45 min
Change from Baseline in average duration of weekly symptomatic RP attacks, Mean (participants with SSc-RP [1]; [9]): -7.67 min
Change from Baseline in average duration of weekly symptomatic RP attacks, Median (participants with SSc-RP [1]; [9]): -10.33 min
Percent Change from Baseline in average duration of weekly symptomatic RP attacks, Mean (participants with SSc-RP [1]; [9]): −32.23%
Percent Change from Baseline in average duration of weekly symptomatic RP attacks, Median (participants with SSc-RP [1]; [9]): −34.60%
Average Duration of Weekly Symptomatic RP Attacks Change from Baseline, Mean (participants with SSc-RP [1]; Pooled Cilnidipine, ITT Part A): -7.67 min
Average Duration of Weekly Symptomatic RP Attacks Change from Baseline, Median (participants with SSc-RP [1]; Pooled Cilnidipine, ITT Part A): -10.33 min
Average Duration of Weekly Symptomatic RP Attacks Percent Change from Baseline, Mean (participants with SSc-RP [1]; Pooled Cilnidipine, ITT Part A): −32.23%
Average Duration of Weekly Symptomatic RP Attacks Percent Change from Baseline, Median (participants with SSc-RP [1]; Pooled Cilnidipine, ITT Part A): −34.60%
Average Duration of Weekly RP Attacks (All Attacks), Change from Baseline, Mean (participants with SSc-RP [1]; [10]): -3.55 min
Average Duration of Weekly RP Attacks (All Attacks), Change from Baseline, Median (participants with SSc-RP [1]; [10]): -7.63 min
Average Duration of Weekly RP Attacks (All Attacks), Percent Change from Baseline, Mean (participants with SSc-RP [1]; [10]): −23.71%
Average Duration of Weekly RP Attacks (All Attacks), Percent Change from Baseline, Median (participants with SSc-RP [1]; [10]): −21.20%
Average Duration of Weekly RP Attacks (All Attacks), Mean (participants with SSc-RP [1]; [11]): 21.66 min
Average Duration of Weekly RP Attacks (All Attacks), Median (participants with SSc-RP [1]; [11]): 30.45 min
Average Duration of weekly symptomatic RP attacks, Mean (participants with SSc-RP [1]; [12]): 21.70 min
Average Duration of weekly symptomatic RP attacks, Median (participants with SSc-RP [1]; [12]): 30.45 min
Change from Baseline in average duration of weekly symptomatic RP attacks, Mean (participants with SSc-RP [1]; [12]): -7.67 min
Change from Baseline in average duration of weekly symptomatic RP attacks, Median (participants with SSc-RP [1]; [12]): -10.33 min
Percent Change from Baseline in average duration of weekly symptomatic RP attacks, Mean (participants with SSc-RP [1]; [12]): −32.23%
Percent Change from Baseline in average duration of weekly symptomatic RP attacks, Median (participants with SSc-RP [1]; [12]): −34.60%
Average Duration of Weekly RP Attacks (All Attacks), Mean (participants with SSc-RP [1]; [13]): 21.66 min
Average Duration of Weekly RP Attacks (All Attacks), Median (participants with SSc-RP [1]; [13]): 30.45 min
Average duration of weekly RP attacks, Change from Baseline, Median (participants with SSc-RP [1]; [14]): -7.63 min
Average duration of weekly RP attacks, Percent Change from Baseline, Mean (participants with SSc-RP [1]; [14]): −23.71%
Average Pain Score Change From Baseline [Mean (SD)] (participants with SSc-RP [2]; Cilnidipine 10 mg (n = 4)): 0.47
Average Raynaud's Pain (change) (participants with SSc-RP [2]; Cilnidipine 20 mg (n = 3)): 12%
Average Pain Score Change From Baseline [Mean (SD)] (participants with SSc-RP [2]; Cilnidipine 20 mg (n = 3)): −0.47
Average Raynaud's Pain (change) (participants with SSc-RP [2]; Pooled Cilnidipine (n = 7)): −27%
